Source: patent publication US9221876B2, “Methods for treating kidney disease with fragments of ApoB-100” (Cedars-Sinai Medical Center, priority 2011, dated 2015)
Entries after “also recorded” stand apart in the source; their conditions may differ. No end group written: not given here.

How the values were obtained:
Assay type in all cases: in vivo, apoE (−/−) male mice
[1] = tested on: glomerular ROS production; assay: Glomerular ROS (superoxide) production, in situ dihydroethidium (DHE) labeling of frozen kidney sections; details: p210/cBSA/Alum+AngII vs cBSA/Alum+AngII and PBS+AngII; N=4 each; p<0.05
Excerpt: (A) Representative figure of in situ DHE labeling. (B) Densitometric analysis of DHE fluorescence. *p<0.05 vs. p210. N=4 each. p210: immunized with p210/cBSA/Alum+AngII; cBSA: immunized with cBSA/Alum+AngII; PBS: immunized with PBS+AngII.
(§1) The inventors assessed the effect of p210 immunization on AngII-induced renal inflammatory responses in apoE (−/−) male mice. For the experiments described herein, native p210 peptide (KTTKQ SFDLS VKAQY KKNKH) was conjugated to cationic bovine serum albumin (cBSA) as carrier. Alum was used as an adjuvant. At 7, 10, and 12 weeks of age, male apoE (−/−) mice were subcutaneously injected with 100 μg of p210/cBSA/Alum. As immunization controls, 100 μg of cBSA/Alum, or PBS were injected. At 10 weeks of age after first immunization booster, 1000 ng/Kg/min of AngII was delivered by subcutaneously implanted osmotic pump for 4 weeks (FIG. 1A).
Superoxide production in kidney was measured by in situ dihydroethidium (DHE) methods with freshly cut frozen sections.

PAI-1 = PAI-1 mRNA expression in kidney; details: p210/cBSA/Alum+AngII vs cBSA/Alum+AngII and PBS+AngII; N=5 each; p<0.05
Excerpt: (§2) (Left): PAI-1. N=5 each, (Right): TGF-β. N=9 each. *p<0.05 vs. p210. p210: immunized with p210/cBSA/Alum+AngII; cBSA: immunized with cBSA/Alum+AngII; PBS: immunized with PBS+AngII.
as §1
(§3) At euthanasia, kidney was harvested for quantitative PCR analysis or histological analysis. Data are presented as mean±SEM. Data were analyzed by ANOVA following post-hoc test for multiple group comparison.
(§4) These anti-hypertensive and renal protective effects are associated with significant reduction of inflammatory cytokines and chemokine gene expression, ROS production mediated by NADPH oxidase, and profibrotic gene expression in kidney. […]

IL-6 = IL-6 mRNA expression in kidney, quantitative PCR; details: p210/cBSA/Alum+AngII vs cBSA/Alum+AngII and PBS+AngII; N=8 each; p<0.05
Method: as §1, §3

[2] = tested on: Angiotensin II type 1 receptor (AT1R); assay: AT1R expression in aorta, Western blot with densitometric analysis, after p210 immunization and AngII infusion; details: 100 μg p210/cBSA/Alum s.c. at 7, 10, 12 weeks of age; AngII 1000 ng/Kg/min by osmotic pump for 4 weeks; vs cBSA/Alum and PBS; N=6 each
Excerpt: N=6 in each group. p210: immunized with p210/cBSA/Alum+AngII; cBSA: immunized with cBSA/Alum+AngII; PBS: immunized with PBS+AngII.
as §1

TNF-α = TNF-α mRNA expression in kidney, quantitative PCR; details: p210/cBSA/Alum+AngII vs cBSA/Alum+AngII and PBS+AngII; N=10 each; p<0.05
Method: as §1, §3

TGF-β = TGF-β mRNA expression in kidney; details: p210/cBSA/Alum+AngII vs cBSA/Alum+AngII and PBS+AngII; N=9 each; p<0.05
Excerpt: as §2, §1, §3, §4

MCP-1 = MCP-1 mRNA expression in kidney, quantitative PCR; details: p210/cBSA/Alum+AngII vs cBSA/Alum+AngII and PBS+AngII; N=8 each; p<0.05
Method: as §1, §3

[3] = Serum creatinine level (indicator of renal function), creatinine assay kit, AngII-induced renal damage
Method: as §1
Serum creatinine (Cr.) (an indicator of renal function) level at 14 weeks of age was assessed by commercially available creatinine assay kit following the manufacture's instruction. […] N: p210=12, cBSA=11, PBS=9.

[4] = tested on: NOX1, a component of NADPH oxidase; assay: NOX1 expression in kidney; details: p210/cBSA/Alum+AngII vs cBSA/Alum+AngII and PBS+AngII; N=8 each; p<0.05
Excerpt: as §2, §1, §3, §4

KTTKQ SFDLS VKAQY KKNKH (KTTKQSFDLSVKAQYKKNKH; also: conjugated to cationic BSA carrier) [Peptide P210, amino acids 3136-3155 of human ApoB-100; tested conjugated to cationic bovine serum albumin (cBSA) as carrier, Alum as adjuvant]
glomerular ROS production (DHE fluorescence) [1]: significantly reduced | PAI-1 mRNA expression in kidney (PAI-1): significantly downregulated; also recorded: significantly reduced | IL-6 mRNA expression in kidney (IL-6): down-regulated; also recorded: significantly reduced | expression of Angiotensin II type 1 receptor (AT1R) in aorta [2]: significantly decreased | TNF-α mRNA expression in kidney (TNF-α): down-regulated; also recorded: significantly reduced | TGF-β mRNA expression in kidney (TGF-β): significantly downregulated; also recorded: significantly reduced | MCP-1 mRNA expression in kidney (MCP-1): down-regulated; also recorded: significantly reduced | Serum Cr. ([3]; at 14 weeks of age, 100 μg p210/cBSA/Alum s.c. at 7, 10, 12 weeks, AngII infusion 4 weeks, mean±SEM, N p210=12): 0.6 ± 0.1 mg/dL | Serum creatinine level vs cBSA and PBS groups ([3]; at 14 weeks of age, p<0.05): significantly lower | AngII-induced renal damage ([3]; p210 immunization, AngII infusion 4 weeks): protected against AngII-induced renal damage; also recorded: significantly attenuated | NOX1 expression in kidney [4]: significantly reduced
